Columns and labels:
Assay in all cases: pTyr-Var library bacterial peptide display kinase screen (enrichment scores)
[1] = system: EPHB2 kinase domain; assay type: biochemical, human; details: sheet EPHB2;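 also: log2 fold change in enrichment of variant over reference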
[2] = biological target: c-Src kinase domain (Homo sapiens, UniProt P12931); assay type: biochemical; details: sheet "Src";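 also: log2 fold change in enrichment of variant over reference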
[3] = system: EPHB1 kinase domain; assay type: biochemical, human; details: for Screen: sheet EPHB1, effect of the variant peptide relative to its reference peptide in the pTyr-Var library screen (enrichment scores); for Screen (variant relative to reference peptide, measured in the pTyr-Var library screen): sheet "EPHB1", variant seq vs reference seq, bacterial peptide display enrichment
[4] = system: Fer kinase domain; assay type: biochemical, mouse; details: sheet "Fer";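 also: log2 fold change in enrichment of variant over reference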
[5] = biological target: T1, c-Abl kinase domain (Mus musculus, UniProt P00520); assay type: biochemical;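 also: log2 fold change in enrichment of variant over reference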
T1 sequence (P00520 242-493 limits assumed): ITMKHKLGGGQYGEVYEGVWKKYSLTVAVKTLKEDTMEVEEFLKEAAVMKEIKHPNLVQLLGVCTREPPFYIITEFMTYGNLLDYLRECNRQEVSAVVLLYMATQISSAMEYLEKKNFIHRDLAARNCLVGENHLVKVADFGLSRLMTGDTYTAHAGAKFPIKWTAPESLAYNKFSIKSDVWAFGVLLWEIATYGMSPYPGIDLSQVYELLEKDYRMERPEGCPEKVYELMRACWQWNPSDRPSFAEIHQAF

[6] = effect of variant peptide relative to its reference peptide in the pTyr-Var library screen (enrichment scores)
[7] = variant peptide versus its reference peptide in the pTyr-Var library screen
[8] = variant peptide relative to its reference peptide, pTyr-Var library screen enrichment
[9] = value of the variant peptide against its reference peptide in the pTyr-Var library screen with Fer
[10] = effect of the variant peptide relative to its reference peptide in the pTyr-Var library screen
[11] = effect of the variant relative to its reference peptide in the pTyr-Var library screen
[12] = fig5-data2, sheet "Abl", Screen for the variant/reference peptide pair, pTyr-Var library
[13] = sheet "Abl", effect of variant peptide relative to its reference peptide in pTyr-Var library screen (enrichment)

Sequence	Screen [1, 6]	Screen [3]	Screen [4, 9]	Screen [2, 10]	other results
LEDPMYDIIRD [RP9_Y142_H137L]	0.7516	0.4802	–	–	Screen [2, 7]: 0.5395; Screen [4, 8]: 0.5422
AAAAVYTFLPD [MYORG_Y36_M35V]	0.71	0.3532	0.8509	–	Screen [2, 7]: 0.6423
FVPSFYHAFSG [ACTN4_Y265_S262P_YF]	–	-0.2788	–	-1.103	–
FGSGNYNVFGN [HNRNPA2B1_Y300_D302V_YF]	–	-1.963	–	–	–
FTFNSYFMHWV [IGHV1-46_Y51_T49N_YF]	–	–	1.775	–	–
TQNAVYSAANF [DDX5_Y535_G533A_YF]	1.01	1.023	0.4164	0.6379	–
PEVSGYCHFAD [TG_Y234_C237Y_YF]	–	–	–	–	Screen (variant relative to reference peptide, measured in the pTyr-Var library screen) [3]: -1.855
RRIHSYRGQLW [VHL_Y112_H115Q]	–	–	–	–	Screen [2, 7]: -2.232; Screen (variant relative to reference peptide, measured in the pTyr-Var library screen) [3]: -1.797
DNEALYDICFC [TUBB3_Y208_R213C]	–	–	–	–	Screen [1, 11]: 0.1536; Screen [2, 7]: 0.09389; Screen (variant relative to reference peptide, measured in the pTyr-Var library screen) [3]: -0.1227; Screen [4, 8]: 0.2993
LPKDLYLISQM [LARP4_Y141_S137P]	–	-0.9052	–	–	–
CFSSEYHFVGG [CTSC_Y345_Y340C_YF]	-0.9567	-0.7957	–	-0.6697	–
RPAFTYATLIR [FOXP3_Y342_P339A]	–	-0.4742	–	1.034	Screen [5, 12]: 1.493
LHNLFYQLEAE [PKP2_Y616_S615F]	1.672	–	1.632	–	Screen [2, 7]: 4.082
HRGCLYLAIEF [TEK_Y899_Y897C_YF]	0.2155	–	–	–	–
LEQGEYALRSH [HADHB_Y244_D242G]	-1.376	–	–	–	–
PNAFIYVVQLP [L1CAM_Y420_A415P_YF]	0.851	–	–	–	Screen [5, 12]: 0.6294
PLDGEYFTPQI [TP53_Y327_L330P]	–	–	–	–	Screen [1, 11]: 0.1464; Screen [2, 7]: -3.182; Screen (variant relative to reference peptide, measured in the pTyr-Var library screen) [3]: -0.3708
ASENVYVNTAH [CTSC_Y150_I153T]	–	-1.518	-2.892	-1.46	–

Sequence	Screen [1, 6]	Screen [3]	Screen [4, 9]	Screen [2, 10]	other results
FNSLLYQVPTS [CALCOCO2_Y358_P357L]	5.149	4.751	3.519	2.72	–
HSREDYFECFQ [ZIM2_Y411_Q408R]	–	–	–	–	Screen [5, 13]: -4.72; Screen (variant relative to reference peptide, measured in the pTyr-Var library screen) [3]: -0.06401
FPSLPYSPVSS [CAMKK2_Y128_C123Y_YF]	–	–	-0.5143	–	–
TLSGIYQFNIA [FOXL2_Y81_I84N_YF]	-4.083	-4.223	-1.015	-0.3308	–
QRCFVYFFSFL [PTEN_Y176_R173C_YF]	–	–	0.1249	–	–
NNHGNYIVLLG [ETFDH_Y172_R175L]	2.804	3.773	–	–	–
QPEDIYHQTWA [GBA_Y244_G241E]	–	–	1.354	0.7767	–
EVDETYVPKKF [ALB_Y521_E525K]	–	–	–	–	Screen [5, 12]: 0.9455
ITSLLYHVVGW [GBA_Y412_N409S]	-0.2083	-0.08421	0.08882	-0.3669	–
TGFRPYVCPFD [YY1_Y383_D380Y_YF]	–	–	–	–	Screen [5, 13]: -3.682; Screen (variant relative to reference peptide, measured in the pTyr-Var library screen) [3]: 1.233
KRIETYFSKNF [PLP1_Y50_L46R_YF]	–	–	–	–	Screen [5, 12]: -0.1285
PQDVTYARLHS [LILRB4_Y412_Q414R]	–	–	–	-0.3004	Screen [5, 12]: -1.045
LDAFIYDAALL [GRIN2A_Y730_V734L]	-0.3341	-0.2525	-0.3557	0.1286	–
LEPGIYIPEDD [XPNPEP3_Y455_I450L]	–	–	–	–	Screen [5, 13]: -2.688
RALCHYFKLNI [ETV6_Y401_R399C_YF]	–	–	–	–	Screen [5, 12]: 0.924
MGSFNYLGFAW [SPTLC2_Y178_R183W_YF]	–	–	–	–	Screen (variant relative to reference peptide, measured in the pTyr-Var library screen) [3]: 1.333
ITNLLYHVVGG [GBA_Y412_W417G]	-0.0356	0.07416	-1.01	-0.2777	–
